Usually EC50 stands for the concentration that produces a half-maximal response.

The source made the active and inactive calls. No cut-off for these calls is given here.

This passage reports EC50 and Activity results from ChEMBL document CHEMBL3784992, “Identification of novel estrogen receptor (ER) agonists that have additional and complementary anti-cancer activities via ER-independent mechanism” (Bioorg Med Chem Lett, 2016).

One test concerns the target T1, Estrogen receptor (Homo sapiens, UniProt P03372).
T1 sequence (P03372 whole entry): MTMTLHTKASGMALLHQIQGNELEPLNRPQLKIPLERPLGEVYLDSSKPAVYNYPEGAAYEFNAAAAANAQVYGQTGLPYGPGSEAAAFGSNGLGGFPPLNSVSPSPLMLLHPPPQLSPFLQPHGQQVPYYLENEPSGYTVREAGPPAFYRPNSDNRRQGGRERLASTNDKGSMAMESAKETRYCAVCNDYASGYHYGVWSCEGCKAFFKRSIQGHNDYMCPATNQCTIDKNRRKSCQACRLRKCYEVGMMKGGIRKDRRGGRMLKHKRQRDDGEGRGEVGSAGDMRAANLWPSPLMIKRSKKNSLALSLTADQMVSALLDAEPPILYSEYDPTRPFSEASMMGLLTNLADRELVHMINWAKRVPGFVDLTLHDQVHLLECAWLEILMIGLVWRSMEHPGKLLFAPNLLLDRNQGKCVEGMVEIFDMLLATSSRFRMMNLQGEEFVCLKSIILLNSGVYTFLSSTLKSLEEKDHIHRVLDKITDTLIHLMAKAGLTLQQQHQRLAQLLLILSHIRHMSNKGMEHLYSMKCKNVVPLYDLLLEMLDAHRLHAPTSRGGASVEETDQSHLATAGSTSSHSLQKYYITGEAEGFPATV
The test can be described thus: Agonist activity at estrogen receptor in human MCF7 cells assessed as ERE-mediated transcriptional activity after 24 hrs by luciferase assay. In kind it is cell-based.

For test [1], the system named is MCF7. Description: Antiproliferative activity against ER-positive human MCF7 cells assessed as cell viability at 10 uM after 48 hrs by MTT assay. In kind it is functional, cell-based. On the technique in general: Formazan colour is commonly taken as a measure of viable cells.
Test [2] deals with T2, Estrogen receptor (Homo sapiens) (UniProt P03372).
T2 sequence (whole entry): T1 sequence (P03372 whole entry)
Description: Agonist activity at estrogen receptor in human MCF7 cells assessed as GREB1 mRNA level at 10 uM after 24 hrs by RT-qPCR method. It counts as cell-based.

The target in test [3] is T2, Estrogen receptor (Homo sapiens). The test can be described thus: Agonist activity at estrogen receptor alpha in human MCF7 cells assessed as ER alpha phosphorylation at 10 uM after 24 hrs by immunoblotting analysis. In kind it is cell-based. For orientation: In western blotting, separated proteins are transferred to a membrane and probed.
In test [4] the test system is MCF7. Description: Antiproliferative activity against ER-positive human MCF7 cells assessed as cell viability after 48 hrs by MTT assay. It counts as functional, cell-based.
The test system of another test is MDA-MB-231. The test can be described thus: Antiproliferative activity against ER-negative human MDA-MB-231 cells assessed as cell viability after 48 hrs by MTT assay. In kind it is functional, cell-based.
Test [5] relates to MCF7. The test can be described thus: Induction of apoptosis in ER-positive human MCF7 cells assessed as membrane blebbing at 10 uM after 24 hrs by DAPI staining based fluorescence microscopy. It counts as functional, cell-based.
Test [6] relates to MCF7. Description: Induction of apoptosis in ER-positive human MCF7 cells assessed as condensed nuclei at 10 uM after 24 hrs by DAPI staining based fluorescence microscopy. It counts as functional, cell-based.
In test [7] the test system is MCF7. Description: Induction of apoptosis in ER-positive human MCF7 cells assessed as cell death at 10 uM after 48 hrs by annexin-V staining based flow cytometry. It counts as functional.
For test [8], the system named is MCF7. The test can be described thus: Effect on cell cycle in ER-positive human MCF7 cells assessed as accumulation at subG1 phase at 10 uM after 48 hrs by propidium iodide staining based flow cytometry. In kind it is functional. (In general: In flow cytometry, cells or beads pass a laser one at a time.)

For the molecule `CCCCON=C(c1ccc(O)cc1)c1ccc(O)cc1`, the EC50 on Estrogen receptor amounted to 75 nM. For the same molecule, the outcome (with MCF7 [1]; in [2]; in [3]; with MCF7 [5]; in the test on MCF7 [6]; in the test on MCF7 [7]) was Active. The result in the test with MCF7 [8] was Active. Besides, the Activity result in the test with MCF7 [4] and in the test on MDA-MB-231 was “Dose-dependent effect” each time.
Take `C=CCCCON=C(c1ccc(O)cc1)c1ccc(O)cc1`: on Estrogen receptor, the EC50 stood at 46 nM. Also, the result (in the test with MCF7 [1]; in [2]; in test [3]; in the test with MCF7 [5]; in the test with MCF7 [6]; in the test with MCF7 [7]) was Active. In addition, in the test on MCF7 [8], the result was Active. Besides, the Activity entry in the test on MCF7 [4] and in the test with MDA-MB-231 was “Dose-dependent effect” each time.
On to `CC(C)CCON=C(c1ccc(O)cc1)c1ccc(O)cc1`, for which the EC50 at Estrogen receptor amounted to 77 nM. Also, the outcome (with MCF7 [1]; in test [2]; in test [3]; with MCF7 [5]; in the test with MCF7 [6]; in the test on MCF7 [7]) was Active. In the test on MCF7 [8], the outcome was Active. For the same molecule, the Activity result in the test with MCF7 [4] and in the test on MDA-MB-231 was “Dose-dependent effect” throughout.
